Laboratory results published in patent US8362031B2, “Lonidamine analogues and treatment of polycystic kidney disease” (University of Kansas, priority 2004, dated 2013).
“Also recorded” adds a separate entry of the source.

Key:
pcy mouse = experiment: In vivo treatment of the pcy mouse; conditions: 1 mg/kg IP, three times weekly from 5-20 weeks of age, after 12 weeks of treatment
Description: The Pkd1 gene is orthologous to the gene involved in ˜85% of human ADPKD cases. […] Biol Reprod. 78(6):1139-52 (2008). If so, it could be reducing the levels of the Hsp90 client proteins, CFTR and NKCC1, both important for cyst-filling chloride secretion. Evidence is shown here that NKCC1 protein levels were reduced by GMZ treatment of metanephric kidneys in organ culture. Evidence was also shown for decreased PCNA levels, which is consistent with a general decrease in cell proliferation in these kidneys in organ culture, due probably to Hsp90 inhibition. The efficacy of GMZ on inhibition of cyst growth in vivo is currently being tested in the pcy mouse, a mouse model of nephronophthisis-3 (NPHP3) which has a slowly progressive renal cystic disease. […] Accordingly, gamendazole inhibits cell proliferation and cAMP-stimulated cyst-like expansion (in metanephric organ cultures). The mechanisms may involve: a direct and rapid inhibition of forskolin-stimulated CFTR channel activity; inhibition of Hsp90 chaperone function leading to long-term reduction of NKCC1 protein levels; or reduction of PKD proliferation pathway components. Thus, GMZ appears to be a potent inhibitor of these two important processes involved in PKD pathogenesis.

ADPKD cells = experiment: Mitotic index of ADPKD cells; type: cell-based, human; conditions: untreated controls 4.1%
Experimental: For the […] shown in FIG. 10C, 5×10^3 ADPKD cells were plated in a 4-well chamber slide. After 24 hours, medium was changed to include 5% FBS. Cells were treated with increasing concentrations of GMZ for 16 hours, fixed with 4% paraformaldehyde and permeabilized with 0.2% Triton-X100. Cells were mounted with DAPI-containing mounting medium and observed by fluorescence microscopy. Eight to ten separate fields were examined at 10× magnification and the number of mitotic figures (nuclei) were counted and expressed as a percentage of the total number of nuclei per field. Statistical analysis was done to compare the GMZ-treated cells to untreated cells at each time point using One-way ANOVA and the Tukey HSD test for pair-wise comparisons.

[1] = tested on: PCNA (proliferating cell nuclear antigen); experiment: Immunostaining of organ culture kidney sections; type: cell-based, mouse; conditions: not shown
Description: Since GMZ affects Hsp90 client proteins involved in cell proliferation, it was hypothesized that GMZ could also be inhibiting cell proliferation in the metanephric organ cultures. To test this idea, organ culture sections were immunostained with an antibody to PCNA (proliferating cell nuclear antigen), a marker of cell proliferation.

[2] = tested on: Salmonella Typhimurium TA 100; experiment: Ames test for mutagenicity (plate assay, colony count); conditions: 48 hours at 37° C.
fruitfly = experiment: Reproduction of fruitfly; type: in vivo, Drosophila (fruitfly)
Description: Several known Hsp90 inhibitors are listed above. With regard to HSP90, RC-MC-110 likely a novel inhibitor of the N-terminal ATP binding site or a novel site on Hsp90. It should be noted that mutants of Hsp90 in Drosophila (fruitfly) produce sterile males and females. […] Genetics. 1999 March; 151(3):1065-79.

HSP90 = molecular target: T1, HSP90 (Mus musculus, UniProt P11499); experiment: Affinity chromatography of cell lysate with biotinylated RC-MC-110, drug specific elution; type: binding; conditions: TM4 sertoli cell (mouse) and ID8 cell lysates, avidin-sepharose column
T1 construct: Wash four 150 mm plates of TM4 cells (sertoli cells) or ID-8 cells (ovarian cancer) once with PBS; endogenous in cells; host or cells: TM4 Sertoli cells (mouse) and ID8 ovarian cancer cells, cell lysate
T1 sequence (P11499 whole entry): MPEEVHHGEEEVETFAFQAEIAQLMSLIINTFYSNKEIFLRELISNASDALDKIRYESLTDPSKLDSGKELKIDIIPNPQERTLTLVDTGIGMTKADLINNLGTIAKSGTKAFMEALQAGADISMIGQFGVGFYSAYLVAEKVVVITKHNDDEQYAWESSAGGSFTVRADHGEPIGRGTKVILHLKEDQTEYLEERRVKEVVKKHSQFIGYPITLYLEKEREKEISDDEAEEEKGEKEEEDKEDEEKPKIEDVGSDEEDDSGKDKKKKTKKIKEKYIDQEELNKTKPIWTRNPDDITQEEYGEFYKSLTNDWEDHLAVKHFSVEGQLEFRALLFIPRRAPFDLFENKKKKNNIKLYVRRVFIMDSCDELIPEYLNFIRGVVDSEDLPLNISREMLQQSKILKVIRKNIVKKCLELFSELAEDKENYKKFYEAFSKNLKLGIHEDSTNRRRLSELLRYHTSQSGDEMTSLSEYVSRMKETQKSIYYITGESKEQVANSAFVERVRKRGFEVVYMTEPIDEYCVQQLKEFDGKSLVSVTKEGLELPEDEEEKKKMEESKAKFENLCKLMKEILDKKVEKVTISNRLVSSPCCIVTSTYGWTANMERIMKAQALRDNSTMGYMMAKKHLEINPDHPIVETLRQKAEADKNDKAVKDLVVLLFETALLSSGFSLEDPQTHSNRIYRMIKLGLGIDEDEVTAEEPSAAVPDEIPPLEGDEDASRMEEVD
Experimental: To analyze the binding of the compounds of the present invention, the following procedure is used.
2. Wash four 150 mm plates of TM4 cells (sertoli cells) or ID-8 cells (ovarian cancer) once with PBS (20 mM concentration pH 7.5). Add enough volume to trypsinize cells. Aspirate and spin cells for 10 minutes at 4° C. at 250×g. Add enough Lysis buffer to the cells.
5. Remove the cell lysate and apply the sample into a 2 ml avidin-sepharose (tetramer form) column (pre-equilibrated with 50 mM Tris-HCl/0.001% NP-40, pH 7.4) to remove native biotinylated compounds.
6. Take 2.7 ml of pre-cleared cell lysate and incubate the sample with RC-MC-110.
Tube 1: 2.7 ml of pre-cleared lysate plus 150 μl of 1.2 mg/ml biotinylated RC-MC-110+150 μl of DMSO (maintaining the same amount of DMSO in both tubes).
Tube 2: 2.7 ml of pre-cleared lysate plus 150 μl of 1.2 mg/ml of biotinylated RC-MC-110 (RC-MC-150, see structure below), and add 150 μl of 12 mg/ml RC-MC-110 stock. Incubate the sample overnight at […] on a rocking platform (or gentle stirring) with gentle agitation.
7. Load samples on an avidin-sepharose column pre-equilibrated with buffer (50 mM Tris-HCl pH 7.4, 0.1% NP-40=TD buffer). Wash column until background is reached.
8. Wash column with 2.5 ml of 0.6 mg/ml of RC-MC-110 in TD buffer (stock 12 mg/ml) until peak elutes (if any) and stable background. Pool fractions.

Male Long Evans rats = experiment: In vivo antispermatogenic testing in Long Evans rats

O=C(O)CCc1nn(Cc2ccc(Cl)cc2Cl)c2cc(C(F)(F)F)ccc12 [GMZ, 3-[1-(2,4-dichlorobenzyl)-6-trifluoromethyl-1H-indazol-3-yl]-propionic acid]
Tolerability in the pcy mouse (pcy mouse): the treated mice appear to be tolerating GMZ
mitotic index (ADPKD cells; 50 μM for 16 h): 2.6%
mitotic index (ADPKD cells; 100 μM for 16 h, p<0.01): 1.7%
PCNA staining [1]: overall less staining, and fewer tubule cells staining for PCNA

O=C(O)/C=C/c1nn(Cc2ccc(Cl)cc2Cl)c2cc(C(F)(F)F)ccc12 [RC-MC-110, trans 3-[1-(2,4-dichlorobenzyl)-6-trifluoromethyl-1H-indazol-3-yl]-acrylic acid]
Ames test (+)S9 0.1 mg/pl. ([2]; (+)S9 mix, 0.1 mg/pl.): Pass
Ames test (+)S9 1 mg/pl. ([2]; (+)S9 mix, 1 mg/pl.): Pass
Ames test (+)S9 10 mg/pl. ([2]; (+)S9 mix, 10 mg/pl.): Pass
Ames test (−)S9 0.1 mg/pl. ([2]; (−)S9 mix, 0.1 mg/pl.): Pass
Ames test (−)S9 1 mg/pl. ([2]; (−)S9 mix, 1 mg/pl.): Pass
Ames test (−)S9 10 mg/pl. ([2]; (−)S9 mix, 10 mg/pl.): Pass
Potency on fruitfly reproduction, compared with lonidamine (fruitfly; in vivo): more potent than lonidamine
Reproduction of fruitfly (fruitfly; provided to a fruitfly): inhibited reproduction
Binding of HSP90 (HSP90): bind heat shock 90 proteins; also recorded: drug specific elution of Hsp90
Mortality (25 mg/kg) (Male Long Evans rats; 25 mg/kg single i.p. injection, […]): 0/5
Response 25 mg/kg (Male Long Evans rats; 25 mg/kg single i.p. injection, animals responding out of animals surviving, five days following injection): 5/5
Mortality (200 mg/kg) (Male Long Evans rats; 200 mg/kg single i.p. injection, […]): 3/5
Response 200 mg/kg (Male Long Evans rats; 200 mg/kg single i.p. injection, animals responding out of animals surviving, five days following injection): 2/2
